The test system of series [1] is MIN6-K8 cells. Nature of the series: Insulin secretion stimulation test using MIN6-K8 cells. The series is classed as cell-based. The settings on record: for insulin secretion from MIN6-K8 cells (relative to control): 1 μM to 100 μM test compound, 11.2 mM glucose, 30 minutes; for amount of insulin secretion from MIN6-K8 cells at 100 μM compared with 30 μM: concentration of 100 μM. Here is the method:
MIN6-K8 cells (cells similar to the MIN6-m9 cell line deposited as FERM P-18081) were cultured in Dulbecco's modified Eagle's medium (DMEM medium) supplemented with 10% FBS, 50 μM 2-mercaptoethanol, 100 mg/L streptomycin and 60.5 mg/L penicillin sulfate at 37° C. After washing the MIN 6-K8 cells twice with medium, the cells were washed twice with 133.4 mM NaCl, 4.7 mM KCl, 1.2 mM KH2PO4, 1.2 mM MgSO4, 2.5 mM CaCl2, 5.0 mM NaHCO3, 2.8 mM glucose, 0.1% BSA and 10 mM HEPES buffer (pH 7.4) for 30 minutes. Cells were then cultured for 30 minutes in the KRBH buffer containing the test compound and 11.2 mM glucose. After incubation, the concentration of insulin contained in the KRBH buffer solution was measured using an insulin assay kit (CIS Bio International Inc.). The concentration of insulin was obtained as a relative value when the concentration of insulin when the test compound was not added was taken as 1. Here, DSC108 and C8 were used as test compounds, and the abilities to promote insulin secretion of both drugs were compared within a concentration range of 1 μM to 100 μM. Measurement was carried out with n=3.
For the 1,1-diphenyl-4-cyclohexyl-semicarbazide derivatives numbered 2 to 7 shown in Table 1, an insulin secretion stimulation test using the above MIN6-K8 cells was performed. The concentration of the test compound was 100 μM, and the amount of secretion when the amount of insulin secreted when no test compound was added was taken as 1 was measured. Incidentally, the number 1 is 1,1-diphenyl-4-cyclohexyl-semicarbazide represented by the chemical formula (18). Numbers 2 to 7 are compounds in which one of hydrogen atoms on the cyclohexyl ring of 1,1-diphenyl-4-cyclohexyl-semicarbazide is substituted with a carboxyl group.

For series [2] the following is noted: mouse, in vivo, po, 30 mg/kg.
Experimental: (§1) Peripheral blood was collected over time from the tail vein after administration. The collected blood was centrifuged to obtain plasma. An extraction solution (chloroform:methanol:water=1:2:0.8) containing 20 μM methionine sulfone was added to the plasma, followed by stirring and centrifugation. After filtering the extracted solution fraction with a 5 kD filter (Millipore Inc.), the extract was lyophilized. The extract obtained by lyophilization was dissolved in pure water and subjected to mass spectrometry. Mass spectrometry was performed using a mass spectrometer (LCMS-8050, Shimazu Inc.) fitted with liquid chromatography (Nexera UHPLC, Shimazu Inc.). Separation by liquid chromatography was performed with a double gradient of 0.1% formic acid aqueous solution and 0.1% acetonitrile formic acid solution using Discovery HS F5 column (3 μm, 2.1 mm×150 mm, Shigma-Aldrich Inc.).
Series [3] relates to type 2 diabetes model rats. Kind of series: Measurement of hypoglycemic action using type 2 diabetes model rats (glucose loading). Type of series: in vivo. The conditions noted are these: GK/Slc rats, oral 100 mg/kg body weight. Here is the method:
To male GK/Slc rats (Japan SLC Inc.) 18-30 weeks old fasted for 6 hours, DSC108-Na was orally administered at 100 mg/kg body weight 20 minutes before glucose loading (1.5 g glucose/kg body weight) (DSC108-Na administration group). As a control, DSC108-Na non-administration group (vehicle administration group) was placed. The glucose concentration in the blood was measured using Antsense III glucose analyzer (Horiba Inc.). In addition, blood insulin concentration was measured by an ELISA method using an insulin measurement kit (Morinaga Inc.). Not limited to this examination, all animal tests were conducted in accordance with the provisions of the Kobe University Animal Experiment Implementation Rules with the approval of the Animal Experimental Ethics Committee of Kobe University.

The test system of another series is wild type mice. Kind of series: Measurement of hypoglycemic action using wild type mice (glucose loading). The series is classed as in vivo, C57BL/6JJc1 mice. The settings on record: oral 10 to 100 mg/kg body weight, 20 minutes before glucose loading 1.5 g/kg. As for the experimental part: To male C57BL/6JJc1 mice (CLEA Japan Inc.) of 18 to 30 weeks old fasted for 16 hours, 10, 30 or 100 mg/kg body weight of DSC108-Na was orally administered 20 minutes before glucose loading (1.5 g glucose/kg body weight) (10 mg/kg body weight administration group, 30 mg/kg body weight administration group and 100 mg/kg body weight administration group, respectively). As a control, DSC108-Na non-administration group (vehicle administration group) was placed. Glucose concentration in the blood was measured over time over 120 minutes after the administration using Antsense III glucose analyzer (Horiba Inc.). Measurement was carried out using 4 mice in each group.

The test system of series [4] is MIN6-K8 cells. Kind of series: Measurement of intracellular calcium ion concentration (Fura-2-AM). Type of series: cell-based. The conditions noted are these: 3 μM to 30 μM, 2.8 mM glucose. As for the experimental part:
In accordance with the method described in “Shimaoto K. Mol Pharmacol. 53, 195-201 (1998)”, measurement of intracellular calcium concentration was performed using fura-2-acetoxymethyl ester (Fura-2-AM, Dojindo Inc.) which is a calcium ion sensitive fluorescent reagent. MIN6-K8 cells were grown in Dulbecco's modified Eagle medium (DMEM medium) supplemented with 10% FBS, 50 μM 2-mercaptoethanol, 100 mg/L streptomycin and 60.5 mg/L penicillin sulfate in a humidified condition of 5% CO2, at 37° C.
MIN6-K8 cells were then left alone in KRBH buffer containing 5 μM Fura-2-AM and 2.8 mM glucose at 37° C. for 20 minutes. Then, KRBH buffer containing 3 μM, 10 μM or 30 μM of DSC108 was each added as a test compound and fluorescence intensity at 340 nm and 380 nm were measured using a dual wavelength fluorometer (Fluoroskan Ascent CF, Labsystem Inc.) over time for 20 minutes and the values of “fluorescence intensity at 340 nm/fluorescence intensity at 380 nm” were determined. […] Measurement was carried out with n=4.
Background: Calcium flux is commonly read through the fluorescence of an indicator in the cells.

For a further series, the system named is pancreatic β cells. Kind of series: Electrophysiological test using pancreatic β cells (membrane potential, perforated patch clamp). Type of series: cell-based, C57BL/6 mice. The settings on record: in the presence of 30 μM compound; −69±2 mV in its absence. As for the experimental part: Islets were isolated from C57BL/6 mice by collagenase digestion method in accordance with the method described “in Shibasaki T. Proc Natl Acad Sci USA. 104, 19333-8 (2007)”. The pancreatic islet cells were dispersed and cultured in DMEM supplemented with 10% FBS, and then plated on a 3.5 cm dish sheeted prior to the experiment with a glass flake coated with collagen.
Membrane potential of pancreatic β cells was measured by a perforated patch clamp method (Gonoi T J J. Biol. Chem., 269: 16989-92 (1994)) in current clamp mode. As an extracellular solution, 5 mM HEPES buffer-NaOH (pH 7.4) containing 143 mM NaCl, 5.4 mM KCl, 1.8 mM CaCl2, 0.5 mM MgCl2, 0.33 mM NaHPO4 and 5.5 mM glucose was used. As a pipette solution, 11 mM HEPES-KOH buffer (pH 7.4) containing 107 mM KCl, 11 mM EGTA, 2 mM MgSO4, 1 mM CaCl2 and […] ATP-K2 was used. Under this condition, outward current induced by 30 μM DSC108 was measured by a pierced patch clamp assay.
On the technique in general: In patch-clamp work, channel activity is measured electrically.

The target of series [5] is T1, KATP channel (human SUR1 and human Kir6.2 reconstituted in COS-1 cells) (Homo sapiens, UniProt Q09428).
T1 construct: expressed in transfected cells; host or cells: COS-1 cells
Nature of the series: Electrophysiological test using KATP channel expressing COS-1 cells. The series is classed as cell-based. The settings on record: 300 μM diazoxide; read-out: IC50 of inhibition of polarization of COS-1 cell membrane via KATP channel induced by diazoxide. Here is the method:
Expression vectors incorporating the gene encoding human SUR1 (hSUR1) and expression vector incorporating the gene encoding human Kir6.2 (hKir6.2) were introduced into COS-1 cells together, and the KATP channel was reconstituted with COS-1 cells (Inagaki N. Science. 270, 1166-70 (1995)). The cells were cultured in DMEM medium (Sigma-Aldrich Inc.) supplemented with 10% FBS and plated on a 3.5 cm dish on which glass flakes coated with collagen had been spread prior to the experiment, and incubated at 37° C. for 24 to 72 hours.
The membrane potential of COS-1 cells reconstituted with KATP channels was determined by the method described in (Gonoi TJ Biol. Chem., 269: 16989-92 (1994)), in the current clamp mode with perforated patch clamp method. […] Inhibitory effect of DSC108 on the polarization of COS-1 cell membrane via KATP channel induced by 300 μM diazoxide (Sigma Chemical Inc.) under these conditions was measured.
At this time, outward current induced by 300 μM diazoxide (Sigma Chemical Inc.) was measured by […] patch clamp assay, and this value was set to 0 mV. The value of outward current when DSC108, glibenclamide or glicrazaide (Sigma Chemical Inc.) was added together with diazoxide was determined to determine the inhibitory effect (IC50) of these agents on the polarization of the cell membrane induced by diazoxide.

A further series concerns the target T2, human SUR1 (hSUR1) (Homo sapiens, UniProt Q09428).
T2 construct: expressed in transfected cells
Kind of series: [^3H] glibenclamide competition test. Type of series: binding. The conditions noted are these: 10 nM [^3H] glibenclamide, 30 minutes. Here is the method:
An expression vector incorporating a gene encoding human SUR1 (hSUR1) was introduced into MIN6-K8 cells by a conventional method to establish a cell line MIN6-K8, which expresses hSUR1 strongly. The MIN6-K8 cells expressing strongly hSUR1 were cultured in a buffer containing 10 nM [^3H] glibenclamide and DSC108-Na for 30 minutes. In this, the concentration of DSC108-Na in the buffer was 300 μM to 1 mM. The cells were vacuum-filtered and recovered on Whatmann GF/C filters (Whatmann International Inc.), and then the filters were washed three times with 4 mL of ice-cold buffer. After washing, radioactivities of the filters were measured with a liquid scintillation counter, and the amount of [^3H] glibenclamide bound to MIN6-K8 cells expressing strongly hSUR1 via hSUR1 was measured. Then, the value at the time of non-addition of DSC108-Na was taken as 100%, and the binding amount (%) of [^3H] glibenclamide to MIN6-K8 cells was determined as a relative value to this value.

A further series concerns mouse pancreases. Kind of series: Insulin secretion stimulation test using mice (pancreas perfusion). The series is classed as in vivo. The conditions noted are these: 10 μM, 2.8 mM glucose, perfused mouse pancreas. As for the experimental part:
Insulin secretion stimulation test using mouse was performed in accordance with the method described in Bonnevie-Nielsen V. Diabetes. 30. 424-9 (1981) and Miki T. Diabetes. 54. 1056-63 (2005). Male mice, 16 to 20 weeks old, fasted for 6 hours, were anesthetized by administering sodium pentobarbital at a dose of 80 mg/kg body weight. The anesthetized mouse pancreases were perfused with KRBH buffer containing 4.6% dextran and 0.25% BSA aerated at 95% O2/5% CO2.
Subsequently, mouse pancreases were perfused with KRBH buffer containing 2.8 mM glucose and 10 μM DSC 108, and the perfused solution was collected every minute, and the concentration of insulin contained in the perfusion solution was measured with an insulin assay kit (CIS Bio international Inc.) over time. IN parallel, as a control, mouse pancreases were perfused with a KRBH buffer solution containing 2.8 mM glucose, and the concentration of insulin contained in the perfusion solution was measured in the same manner.

Series [6] is described as follows: Measurement of blood concentration after oral administration.
Experimental: as §1

Consider four compounds from US10759749B2, “Therapeutic agent for diabetes” (JCR Pharmaceuticals Co., Ltd., priority 2016, dated 2020).

Structures are written as SMILES. Where two headings read alike, the source gives them in different places.

T1 sequence (Q09428 whole entry): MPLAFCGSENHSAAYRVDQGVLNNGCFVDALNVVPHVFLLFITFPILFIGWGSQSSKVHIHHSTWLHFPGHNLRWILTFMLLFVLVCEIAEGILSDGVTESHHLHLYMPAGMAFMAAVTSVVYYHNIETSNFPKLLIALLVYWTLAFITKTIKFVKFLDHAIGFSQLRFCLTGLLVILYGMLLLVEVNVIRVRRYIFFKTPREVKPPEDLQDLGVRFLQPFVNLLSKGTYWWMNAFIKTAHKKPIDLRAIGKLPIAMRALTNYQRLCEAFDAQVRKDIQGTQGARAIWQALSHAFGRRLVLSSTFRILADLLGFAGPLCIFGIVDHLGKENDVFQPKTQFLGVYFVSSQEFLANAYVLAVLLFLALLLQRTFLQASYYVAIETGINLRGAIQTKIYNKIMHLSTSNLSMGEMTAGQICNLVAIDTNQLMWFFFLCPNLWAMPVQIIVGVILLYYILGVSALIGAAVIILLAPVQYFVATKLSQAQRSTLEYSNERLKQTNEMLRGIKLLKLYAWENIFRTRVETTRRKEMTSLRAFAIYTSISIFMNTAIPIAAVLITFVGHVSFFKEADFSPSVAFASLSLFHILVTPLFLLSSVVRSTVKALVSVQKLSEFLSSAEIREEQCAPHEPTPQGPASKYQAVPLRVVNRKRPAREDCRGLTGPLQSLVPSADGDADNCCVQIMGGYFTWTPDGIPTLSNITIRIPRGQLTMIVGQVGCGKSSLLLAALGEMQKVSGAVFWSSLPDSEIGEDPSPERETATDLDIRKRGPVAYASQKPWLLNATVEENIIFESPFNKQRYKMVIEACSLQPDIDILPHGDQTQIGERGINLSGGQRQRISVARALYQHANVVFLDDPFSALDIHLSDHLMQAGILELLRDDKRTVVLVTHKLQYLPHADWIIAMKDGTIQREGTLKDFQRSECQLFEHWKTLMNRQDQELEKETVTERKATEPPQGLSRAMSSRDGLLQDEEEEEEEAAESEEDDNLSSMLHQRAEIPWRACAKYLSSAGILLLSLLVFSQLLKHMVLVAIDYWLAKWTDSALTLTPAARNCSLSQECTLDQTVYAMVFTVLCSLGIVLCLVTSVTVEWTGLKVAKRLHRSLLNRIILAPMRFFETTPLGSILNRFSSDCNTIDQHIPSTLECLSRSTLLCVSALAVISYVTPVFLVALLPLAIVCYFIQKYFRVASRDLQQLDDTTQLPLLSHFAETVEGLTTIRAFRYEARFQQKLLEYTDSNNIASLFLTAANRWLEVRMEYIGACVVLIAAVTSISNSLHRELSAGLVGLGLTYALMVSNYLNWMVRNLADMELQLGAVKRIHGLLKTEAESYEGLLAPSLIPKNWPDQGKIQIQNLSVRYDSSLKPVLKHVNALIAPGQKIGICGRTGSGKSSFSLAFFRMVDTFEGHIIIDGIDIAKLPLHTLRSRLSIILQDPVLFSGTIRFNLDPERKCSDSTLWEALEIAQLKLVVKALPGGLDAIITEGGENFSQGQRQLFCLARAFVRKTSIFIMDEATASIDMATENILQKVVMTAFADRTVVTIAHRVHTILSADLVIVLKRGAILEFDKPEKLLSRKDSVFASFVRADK
T1 sequence (Q14654 whole entry partner): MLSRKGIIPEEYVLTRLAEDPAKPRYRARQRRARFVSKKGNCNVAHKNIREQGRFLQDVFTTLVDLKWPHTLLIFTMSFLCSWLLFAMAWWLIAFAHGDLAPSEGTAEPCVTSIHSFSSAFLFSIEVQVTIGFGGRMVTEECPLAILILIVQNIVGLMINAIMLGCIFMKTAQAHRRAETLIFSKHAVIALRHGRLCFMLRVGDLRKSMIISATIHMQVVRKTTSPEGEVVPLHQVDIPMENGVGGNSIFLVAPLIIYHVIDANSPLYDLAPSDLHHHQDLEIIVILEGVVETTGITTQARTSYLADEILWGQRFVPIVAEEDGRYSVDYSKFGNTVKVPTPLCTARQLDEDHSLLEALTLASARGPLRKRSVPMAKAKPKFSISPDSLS
T2 sequence (Q09428 whole entry): as the sequence (Q09428 whole entry) above

`S=C(NC1CCCCC1)NN(c1ccccc1)c1ccccc1` [C8, 1,1-diphenyl-4-cyclohexyl-thiosemicarbazide]: in the series on MIN6-K8 cells [1], the “insulin secretion from MIN6-K8 cells (relative to control)” value is “promoted insulin secretion from MIN6-K8 cells in a concentration-dependent manner” and the “amount of insulin secretion from MIN6-K8 cells at 100 μM compared with 30 μM” value is “decreased as compared with the concentration at 30 μM”.

`O=C(O)[C@H]1CC[C@@H](NC(=S)NN(c2ccccc2)c2ccccc2)CC1` [DSC108-Na]: in [2], the “disappearance from the blood” value is recorded as “quickly disappeared from the blood”, the “highest value in blood concentration” value was determined as 72.4 µM and the “time after administration of the highest blood concentration” value is reported as 30 min. The “duration of the effect of lowering the glucose concentration in the blood” value in [3] worked out at 120 min. For the same compound, the “blood levels of insulin” value in series [3] (20 minutes after administration) is “increase in blood levels of insulin was observed”. Also, the “hypoglycemic effect (blood glucose concentration)” value with wild type mice is “dose-dependent hypoglycemic effect”.

Regarding `O=C(O)[C@H]1CC[C@@H](NC(=S)NN(c2ccccc2)c2ccccc2)CC1` [DSC108], in the series on MIN6-K8 cells [1] (1 μM to 100 μM), the “insulin secretion promoting ability compared between the two test compounds” value is given as “higher insulin secretion promoting ability as compared with C8”. Further, in the series on MIN6-K8 cells [1], the “insulin secretion from MIN6-K8 cells (relative to control)” value is on record as “promoted insulin secretion from MIN6-K8 cells in a concentration-dependent manner” and the “amount of insulin secretion from MIN6-K8 cells at 100 μM compared with 30 μM” value is recorded as “decreased as compared with the concentration at 30 μM”. The “intracellular calcium ion concentration (fluorescence 340 nm/380 nm)” value in the series with MIN6-K8 cells [4] is given as “increased intracellular calcium ion concentration in a concentration-dependent manner”. Also, the “membrane potential of pancreatic β cells” value with pancreatic β cells is −54±4 mV. Further, in series [5], the IC50 (usually the midpoint of a concentration-inhibition curve) came out at 2300 nM. The “binding of [^3H] glibenclamide to hSUR1-strongly expressed MIN6-K8 cells” value at human SUR1 (hSUR1) was “inhibited the binding of [^3H] glibenclamide to hSUR1-strongly expressed MIN6-K8 cells in a concentration-dependent manner”. In the series with mouse pancreases, the “time after initiation of perfusion at which insulin concentration in the perfusion liquid increased” value was 5 min and the “time after start of perfusion at which insulin concentration returned to baseline” value worked out at 9 min.

On to `Cc1ccc(S(=O)(=O)NC(=O)NN2CC3CCCC3C2)cc1` (centres unmarked) [Glyclazide, gliclazide], for which, in series [6] (male, C57BL/6JJc1, mouse, plasma, po, 30 mg/kg), the concentration at 120 min came out at 75 µM. In series [6] (mice, oral, 30 mg/kg body weight), the “time after administration of the highest blood concentration” value is on record as 60 min. Besides, the “highest value in blood concentration” value in [6] (mice, oral, 30 mg/kg body weight, plasma) is given as “approximately 100 μM”.
